Our source for the Activity, EC50 and IC50 values is ChEMBL document CHEMBL2057208, “Benzoylbenzimidazole-based selective inhibitors targeting Cryptosporidium parvum and Toxoplasma gondii calcium-dependent protein kinase-1” (Bioorg Med Chem Lett, 2012).

Usually EC50 stands for the concentration giving half of the maximal effect. One may read the IC50 as the concentration that inhibits the measured activity by half. Lower therefore signals greater potency.

Active and inactive are the calls of the source. The calls are words filed in the database; no cut-off is given here. Bounds are passed on as bounds.

In one assay the test system is Cryptosporidium parvum. Kind of assay: Antiparasitic activity against Cryptosporidium parvum up to 1 uM. Type of assay: functional, organism-based.
The next assay is described as follows: cells. As to conditions: Homo sapiens, CRL8155.
In a further assay the test system is HL-60. Kind of assay: cells. Particulars: Homo sapiens.
A further assay concerns Toxoplasma gondii. Kind of assay: Antiparasitic activity against Toxoplasma gondii up to 1 uM. Type of assay: functional, organism-based.
The nature of assay [1]: Inhibition of Cryptosporidium parvum CDPK1.
Assay [2] concerns the target T1, Calmodulin-domain protein kinase 1 (Toxoplasma gondii, UniProt Q9BJF5).
T1 sequence (Q9BJF5 whole entry): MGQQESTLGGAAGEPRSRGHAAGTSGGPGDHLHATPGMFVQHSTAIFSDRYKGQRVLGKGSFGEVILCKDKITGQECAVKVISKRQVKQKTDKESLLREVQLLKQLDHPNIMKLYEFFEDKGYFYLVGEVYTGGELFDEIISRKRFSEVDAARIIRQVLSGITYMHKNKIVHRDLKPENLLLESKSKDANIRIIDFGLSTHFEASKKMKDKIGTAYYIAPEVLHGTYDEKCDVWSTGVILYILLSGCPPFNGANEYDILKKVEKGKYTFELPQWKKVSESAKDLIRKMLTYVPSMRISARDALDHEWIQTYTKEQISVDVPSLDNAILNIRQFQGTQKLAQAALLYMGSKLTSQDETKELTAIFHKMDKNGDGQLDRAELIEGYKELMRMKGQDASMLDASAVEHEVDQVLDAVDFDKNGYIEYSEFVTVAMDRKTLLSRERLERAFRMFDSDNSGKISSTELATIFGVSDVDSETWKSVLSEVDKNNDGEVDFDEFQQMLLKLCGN
Kind of assay: Inhibition of Toxoplasma gondii CDPK1.

Description for HL-60: Cytotoxicity against human HL60 cells after 48 to 72 hrs by Alamar blue assay

For `O=C(CCCC1CCNCC1)Nc1nc2ccc(C(=O)c3ccccc3)cc2[nH]1`, the result in the assay with Cryptosporidium parvum and in the assay on Toxoplasma gondii was inactive. Besides, the EC50 in the assay “cells” and with HL-60 was > 30 µM in each case. Besides, the IC50 in assay [1] was 0.082 µM; in assay [2] it was 0.018 µM.
Consider `N[C@@H](Cc1c[nH]cn1)C(=O)Nc1nc2ccc(C(=O)c3ccccc3)cc2[nH]1`, for which the outcome in the assay on Cryptosporidium parvum and with Toxoplasma gondii was inactive. For the same compound, the EC50 in the assay “cells” and in the assay with HL-60 was > 30 µM in each case. In addition, the IC50 in assay [1] was 0.32 µM; in assay [2], 0.14 µM.
As for `O=C(c1ccccc1)c1ccc2nc(NCCO)[nH]c2c1`, the result in the assay on Cryptosporidium parvum and in the assay on Toxoplasma gondii was inactive. For the same compound, the EC50 in the assay “cells” and with HL-60 was > 30 µM each time. For the same compound, the IC50 in assay [1] and in assay [2] was > 3 µM each time.
As for `O=C(NCCCCO)Nc1nc2ccc(C(=O)c3ccccc3)cc2[nH]1`, the result with Cryptosporidium parvum and in the assay with Toxoplasma gondii was inactive. Further, the EC50 in the assay “cells” and with HL-60 was > 30 µM each time. The IC50 in assay [1] is 0.59 µM; in assay [2], 0.38 µM.
On to `NCCCC(=O)Nc1nc2ccc(C(=O)c3ccccc3)cc2[nH]1`, for which the outcome with Cryptosporidium parvum and with Toxoplasma gondii was inactive. Moreover, the EC50 in the assay “cells” and in the assay on HL-60 was > 30 µM throughout. Further, the IC50 in assay [1] worked out at 0.091 µM; in assay [2] it was 0.069 µM.
For `Nc1nc2ccc(C(=O)c3ccccc3)cc2n1CCc1ccc(F)cc1`, the outcome in the assay with Cryptosporidium parvum and with Toxoplasma gondii was inactive. The EC50 in “cells” and with HL-60 was > 30 µM throughout. In addition, the IC50 stood at 0.95 µM in assay [1] and 0.19 µM in assay [2].
Consider `COC(=O)Nc1nc2cc(C(=O)c3ccccc3)ccc2[nH]1` [MEBENDAZOLE], for which the outcome in the assay on Cryptosporidium parvum and in the assay on Toxoplasma gondii was inactive. For the same compound, the EC50 in “cells” and in the assay with HL-60 was > 30 µM each time. In assay [1], this compound returned an IC50 of 0.92 µM.
Take `Nc1nc2ccc(C(=O)c3ccccc3)cc2n1C[C@H]1CCCN1`: the outcome with Cryptosporidium parvum and with Toxoplasma gondii was inactive. The half-maximal effective concentration (EC50) in the assay “cells” and with HL-60 was > 30 µM throughout. Further, the values for the half-inhibitory concentration (IC50) in assay [1] and in assay [2] were 0.87 µM and 1 µM, respectively.
For `Nc1nc2ccc(C(=O)c3ccccc3)cc2n1CCN1CCOCC1`, the outcome in the assay on Cryptosporidium parvum and in the assay on Toxoplasma gondii was inactive. The EC50 in the assay “cells” and in the assay with HL-60 was > 30 µM throughout. In addition, the figures for the IC50 in assay [1] and in assay [2] were 0.39 µM and 0.22 µM, respectively.
Regarding `NCCCCNC(=O)Nc1nc2ccc(C(=O)c3ccccc3)cc2[nH]1`, the result in the assay on Cryptosporidium parvum and in the assay with Toxoplasma gondii was inactive. The concentration for a half-maximal effect (EC50) in “cells” and in the assay on HL-60 was > 30 µM throughout. Also, the IC50 was determined as 0.15 µM in assay [1] and 0.14 µM in assay [2].
`CN1CCC[C@@H]1Cn1c(N)nc2ccc(C(=O)c3ccccc3)cc21`: the result in the assay on Cryptosporidium parvum and in the assay on Toxoplasma gondii was inactive. The EC50 in the assay “cells” and in the assay with HL-60 was > 30 µM in each case. Besides, the figures for the IC50 in assay [1] and in assay [2] were 0.79 µM and 0.66 µM, respectively.
Turning to `O=C(c1ccccc1)c1ccc2nc(NC(=O)[C@@H]3CCCN3)[nH]c2c1`, the outcome with Cryptosporidium parvum and in the assay with Toxoplasma gondii was inactive. Moreover, the half-maximal effective concentration (EC50) in the assay “cells” and in the assay with HL-60 was > 30 µM throughout. In addition, the IC50 in assay [1] turned out to be 0.13 µM; in assay [2] it was 0.16 µM.
Take `O=C(CC1CCNCC1)Nc1nc2ccc(C(=O)c3ccccc3)cc2[nH]1`: the result in the assay on Cryptosporidium parvum and in the assay with Toxoplasma gondii was inactive. For the same compound, the EC50 in “cells” and with HL-60 was > 30 µM each time. Besides, the IC50 in assay [1] was 0.12 µM; in assay [2] it was 0.06 µM.
For `COC(=O)Nc1nc2ccc(C(O)c3ccccc3)cc2[nH]1` (centres undefined), the IC50 in assay [1] and in assay [2] was > 3 µM throughout.
On to `Nc1nc2ccc(C(=O)c3ccccc3)cc2n1C[C@H]1CCNC1`, for which the outcome with Cryptosporidium parvum and with Toxoplasma gondii was inactive. Also, the EC50 in the assay “cells” and in the assay on HL-60 was > 30 µM in each case. Further, the IC50 in assay [1] and in assay [2] was 0.12 µM throughout.
Turning to `O=C(NCCO)Nc1nc2cc(C(=O)c3ccccc3)ccc2[nH]1`, the outcome in the assay with Cryptosporidium parvum and in the assay with Toxoplasma gondii was inactive. Further, the EC50 in the assay “cells” and in the assay with HL-60 was > 30 µM each time. In assay [1], this compound displayed an IC50 of 0.18 µM.
As to `Nc1nc2ccc(C(=O)c3ccccc3)cc2n1C[C@@H]1CCCN1`, the result with Cryptosporidium parvum and in the assay with Toxoplasma gondii was inactive. Also, the EC50 in “cells” and with HL-60 was > 30 µM each time. Besides, the IC50 in assay [1] stood at 0.26 µM; in assay [2], 0.41 µM.
`CN1CCC[C@H]1CCn1c(N)nc2ccc(C(=O)c3ccccc3)cc21`: the outcome in the assay on Cryptosporidium parvum and in the assay with Toxoplasma gondii was inactive. The EC50 in “cells” and in the assay with HL-60 was > 30 µM throughout. The IC50 worked out at 0.071 µM in assay [1] and 0.068 µM in assay [2].
`CC(C)(C)Cn1c(N)nc2ccc(C(=O)c3ccccc3)cc21`: the result in the assay on Cryptosporidium parvum and in the assay on Toxoplasma gondii was inactive. For the same compound, the EC50 in “cells” and with HL-60 was > 30 µM in each case. Besides, the IC50 in assay [1] was 0.13 µM; in assay [2], 0.063 µM.
On to `O=C(NCCO)Nc1nc2ccc(C(=O)c3ccccc3)cc2[nH]1`, for which, in assay [2], half-maximal inhibition (IC50) required 0.13 µM. In other words, the sub-micromolar range.
In the case of `O=C(NCCC1CCCNC1)Nc1nc2ccc(C(=O)c3ccccc3)cc2[nH]1` (centres undefined), the outcome in the assay with Cryptosporidium parvum and in the assay with Toxoplasma gondii was inactive. For the same compound, the EC50 in “cells” and in the assay on HL-60 was > 30 µM each time. Besides, the concentration for half-maximal inhibition (IC50) in assay [1] turned out to be 0.16 µM; in assay [2], 0.12 µM.
With `Nc1nc2ccc(C(=O)c3ccccc3)cc2n1CCN1CCCCC1`, the result in the assay on Cryptosporidium parvum and in the assay on Toxoplasma gondii was inactive. Moreover, the EC50 in the assay “cells” and with HL-60 was > 30 µM in each case. Besides, the results for the IC50 in assay [1] and in assay [2] were 0.3 µM and 0.16 µM, respectively.
For `NCCCCCCC(=O)Nc1nc2ccc(C(=O)c3ccccc3)cc2[nH]1`, the result in the assay with Cryptosporidium parvum and in the assay with Toxoplasma gondii was inactive. Further, the EC50 in the assay “cells” and in the assay on HL-60 was > 30 µM in each case. For the same compound, the IC50 turned out to be 0.072 µM in assay [1] and 0.022 µM in assay [2].
With `CC(C)Cn1c(N)nc2ccc(C(=O)c3ccccc3)cc21`, the result in the assay with Cryptosporidium parvum and in the assay on Toxoplasma gondii was inactive. The EC50 in “cells” and with HL-60 was > 30 µM throughout. Further, the IC50 in assay [1] stood at 0.23 µM; in assay [2], 0.067 µM.
On to `CN1CCN(CCCn2c(N)nc3ccc(C(=O)c4ccccc4)cc32)CC1`, for which the result in the assay with Cryptosporidium parvum and with Toxoplasma gondii was inactive. The EC50 in the assay “cells” and in the assay with HL-60 was > 30 µM in each case. Further, the IC50 in assay [1] was determined as 0.17 µM; in assay [2], 0.18 µM.
